Data: the supplement of paper PMC11451515

Tested on: SEM cells
Test: cell viability relative to DMSO control; higher = less cytotoxic
Settings: 48 h
Procedure, shortened: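 Library compounds in DMSO were pin-dosed into 1536-well plates (5 μl) holding NOMO1 or SEM (500 cells/well) or P12-Ichikawa (1000 cells/well) leukemia cells, across an 11-point threefold series of 47 μM to 0.79 nM. Each cell line had been adapted for at least four passages in each medium. CellTiter-Glo One luminescence was read after 48 h at 37°C. Viability is the per-plate percentage relative to DMSO wells, with cell-free wells as background.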

[1] = HPLM + 10% dialyzed FBS, 0.000781 µM
[2] = HPLM + 10% dialyzed FBS, 0.00234 µM
[3] = HPLM + 10% dialyzed FBS, 0.00702 µM
[4] = HPLM + 10% dialyzed FBS, 0.0211 µM
[5] = HPLM + 10% dialyzed FBS, 0.0632 µM
[6] = HPLM + 10% dialyzed FBS, 0.19 µM
[7] = HPLM + 10% dialyzed FBS, 0.569 µM
[8] = HPLM + 10% dialyzed FBS, 1.71 µM
[9] = HPLM + 10% dialyzed FBS, 5.12 µM
[10] = HPLM + 10% dialyzed FBS, 15.4 µM
[11] = HPLM + 10% dialyzed FBS, 46.1 µM
[12] = RPMI 5 mM glucose + 10% FBS, 0.000781 µM
[13] = RPMI 5 mM glucose + 10% FBS, 0.00234 µM
[14] = RPMI 5 mM glucose + 10% FBS, 0.00702 µM
[15] = RPMI 5 mM glucose + 10% FBS, 0.0211 µM
[16] = RPMI 5 mM glucose + 10% FBS, 0.0632 µM
[17] = RPMI 5 mM glucose + 10% FBS, 0.19 µM
[18] = RPMI 5 mM glucose + 10% FBS, 0.569 µM
[19] = RPMI 5 mM glucose + 10% FBS, 1.71 µM
[20] = RPMI 5 mM glucose + 10% FBS, 5.12 µM
[21] = RPMI 5 mM glucose + 10% FBS, 15.4 µM
[22] = RPMI 5 mM glucose + 10% FBS, 46.1 µM
[23] = RPMI 5 mM glucose + 10% dialyzed FBS, 0.000781 µM
[24] = RPMI 5 mM glucose + 10% dialyzed FBS, 0.00234 µM
[25] = RPMI 5 mM glucose + 10% dialyzed FBS, 0.00702 µM
[26] = RPMI 5 mM glucose + 10% dialyzed FBS, 0.0211 µM
[27] = RPMI 5 mM glucose + 10% dialyzed FBS, 0.0632 µM
[28] = RPMI 5 mM glucose + 10% dialyzed FBS, 0.19 µM
[29] = RPMI 5 mM glucose + 10% dialyzed FBS, 0.569 µM
[30] = RPMI 5 mM glucose + 10% dialyzed FBS, 1.71 µM
[31] = RPMI 5 mM glucose + 10% dialyzed FBS, 5.12 µM
[32] = RPMI 5 mM glucose + 10% dialyzed FBS, 15.4 µM
[33] = RPMI 5 mM glucose + 10% dialyzed FBS, 46.1 µM

Compound	cell viability [1]	cell viability [2]	cell viability [3]	cell viability [4]	cell viability [5]	cell viability [6]	cell viability [7]	cell viability [8]	cell viability [9]	cell viability [10]	cell viability [11]	cell viability [12]	cell viability [13]	cell viability [14]	cell viability [15]	cell viability [16]	cell viability [17]	cell viability [18]	cell viability [19]	cell viability [20]	cell viability [21]	cell viability [22]	cell viability [23]	cell viability [24]	cell viability [25]	cell viability [26]	cell viability [27]	cell viability [28]	cell viability [29]	cell viability [30]	cell viability [31]	cell viability [32]	cell viability [33]
CNCC[C@H](Oc1cccc2ccccc12)c1cccs1	121%	128%	110%	122%	121%	130%	111%	99.4%	110%	84.2%	46.4%	124%	117%	119%	116%	110%	136%	111%	107%	86%	96.2%	24%											
COC1=C(OCCCN2CCOCC2)C=CC\3=C1/N=C(/NC(=O)C4=CN=C(N)N=C4)N5CC/N=C35	95.2%	94.2%	102%	99.2%	97.4%	77.2%	69.4%	65.8%	57.3%	47.6%	37.4%	128%	119%	110%	106%	104%	97.6%	82.4%	88.1%	72%	63%	42.8%	89.3%	101%	93.2%	95.5%	86.3%	83%	66.5%	59.3%	56.6%	51.8%	35.1%
CC12CC3CC(C)(C1)CC(N)(C3)C2	89.4%	107%	93.2%	105%	96.7%	99.4%	127%	126%	103%	114%	105%	106%	94.4%	105%	109%	110%	106%	122%	114%	133%	123%	131%	84.3%	86.8%	88.6%	116%	102%	104%	110%	103%	101%	95.5%	104%
CN1CC(=O)N2[C@H](c3ccc4c(c3)OCO4)c3[nH]c4ccccc4c3C[C@@H]2C1=O	98.8%	88.6%	97.2%	96.3%	98%	102%	108%	106%	93.9%	100%	85.9%	92.6%	85.3%	85.8%	97.9%	102%	108%	92.6%	88.8%	82.1%	85.3%	83.5%	94%	88.8%	88.3%	108%	106%	69.6%	105%	113%	105%	89%	95.4%
CC1=CC(=CC(=C1C\C2=N\CCN2)C)C(C)(C)C	58.5%	90.1%	83.4%	100%	88.3%	98.1%	97.4%	100%	106%	107%	77.6%	77.8%	104%	91.7%	101%	103%	96.4%	110%	104%	110%	83.3%	94.9%	89.1%	96.3%	102%	105%	118%	107%	118%	112%	113%	120%	94.7%
COc1cc(C(=O)N2CC[C@@H](O)[C@@H](N)C2)cc2nc(-c3cc4ccccc4n3CC3CC3)n(C)c12	97.9%	118%	116%	124%	119%	117%	124%	51.1%	28.6%	27.4%	20.1%																						
C[C@@H]1CCO[C@H]2CN\3/C=C(/C(=O)NCC4=C(F)C=C(F)C=C4)C(=O)\C(=C3C(=O)N12)O	82.2%	104%	85%	104%	73.4%	91.6%	105%	103%	104%	91.5%	85.3%	100%	95.2%	99.6%	98.5%	44.4%	111%	104%	112%	107%	85.8%	88.1%	93.4%	98.7%	95.2%	96.3%	99.1%	100%	107%	99.3%	94.6%	96.7%	86.6%
COc1ccc2c(c1)CN(C)CC2c1ccc(Cl)c(Cl)c1 (stereo not drawn)	78%	104%	121%	102%	122%	109%	133%	117%	126%	117%	58.7%	95.5%	112%	140%	108%	136%	136%	131%	123%	128%	125%	74.5%	89.2%	109%	133%	104%	138%	168%	157%	150%	143%	141%	109%
Nc1ncnc2c1ncn2[C@@H]1O[C@H](CO)C[C@H]1O	95.8%	98%	111%	106%	111%	101%	103%	97.4%	79.7%	59.4%	41.2%	95%	96%	99.6%	98.7%	104%	93.2%	95.4%	93.6%	97.8%	73%	67.7%	86.7%	93.4%	87.9%	99.7%	96.1%	91.7%	95.6%	89.6%	91.1%	65%	41.7%
CN1CCCN(CC1)C2=CC=C3C(=O)\C(=C/4SC5=C(C=CC=C5)N4C3=N2)C(=O)NCC6=CN=C(C)C=N6	110%	102%	114%	91.7%	97.9%	103%	82.2%	88.1%	81.2%	73.6%	41.6%												89.6%	93.9%	97.5%	92.7%	98.1%	79.5%	68.2%	71.3%	70.5%	56.3%	33.1%
NC[C@H]1O[C@H](O[C@@H]2[C@H](O)[C@@H](O[C@H]3O[C@H](CO)[C@@H](O)[C@H](N)[C@H]3O)[C@H](N)C[C@@H]2N)[C@H](O)[C@@H](O)[C@@H]1O	96.6%	93.3%	100%	24%	88.6%	105%	105%	96.8%	105%	90.1%	87.3%												115%	125%	124%	23%	113%	83.3%	107%	113%	105%	104%	92.4%
C=C[C@H]1CN2CCC1C[C@@H]2C(O)c1ccnc2ccc(OC)cc12 (stereo partly drawn)	118%	146%	116%	22.4%	131%	115%	121%	111%	126%	113%	111%	67.5%	77.6%	104%	11.3%	99.7%	96.1%	82%	77%	94.6%	84.6%	63%	121%	123%	138%	23.6%	129%	121%	112%	127%	131%	132%	97.5%
CCCCOCCOc1nc(-c2ccc(C(=O)O)c(F)c2)sc1C	124%	126%	120%	125%	123%	124%	108%	111%	115%	109%	119%	101%	111%	113%	118%	104%	109%	107%	102%	102%	84.5%	106%	105%	113%	108%	122%	121%	111%	116%	120%	97.4%	104%	121%
C[C@]12CC[C@H]3[C@@H](CCC4=CC(=O)CC[C@@H]43)[C@@H]1CC[C@@H]2OC(=O)CCc1ccccc1	83.2%	22.9%	101%	93.8%	100%	98.5%	94.3%	99.6%	85.9%	91.4%	93.6%	116%	24.5%	123%	111%	116%	115%	108%	122%	110%	120%	114%	99.4%	26.5%	107%	122%	112%	109%	104%	123%	100%	125%	113%
CCOC(=O)C(C)OC1=CC=CC2=C1\C=C/N(CC(=O)NC3=CC=C4OCCOC4=C3)C2=O (stereo not drawn)	77.7%	85.4%	92.1%	93%	102%	92.3%	92.4%	97.4%	103%	100%	102%	80.1%	87.8%	88%	88%	93.2%	90.2%	93.5%	95%	109%	98.1%	92.6%	90.1%	94.9%	102%	89%	85.4%	98%	99.2%	104%	99.1%	88.2%	112%
CCOC(=O)\C1=C\[C@]2(CC)CCCN3CCC4=C([C@H]23)[N]1C5=C4C=CC=C5	71.6%	100%	87.6%	111%	118%	103%	104%	111%	114%	97.7%	80.7%	103%	104%	111%	114%	121%	112%	110%	108%	109%	107%	77.1%	93.7%	111%	112%	108%	116%	124%	126%	108%	118%	105%	94.7%
